Data as given in patent publication US20170088601A1, “CD133 EPITOPES” (CEDARS-SINAI MEDICAL CENTER, priority 2008, published 2017).

Tests used:
[1] = target: T1, HLA-A2 molecules (HLA-A*0201) on T2 cells (Homo sapiens, UniProt P04439, D140Y/D185E/D98H/E176V/E277Q/G131W/G231S/I119V/I121R/I166T/I218V/L300P/L318F/N151K/N90K/P208A/P217A/Q86G/Q94H/R138H/R169H/T345S); assay: Binding of peptides to HLA-A2 and stability of HLA-A*0201/peptide complexes on T2 cells (BB7.2 mAb staining)
T1 construct: mean fluorescence of peptide preincubated T2 cells; endogenous in cells; host or cells: T2 cells
Experimental: The cells were then incubated with Brefeldin A (Sigma, St. Louis, Mo.) at 10 μg/ml for 1 hour, washed, incubated at 37° C. for 0, 3, or 6 hours in the presence of Brefeldin A (0.5 μg/ml), and then stained with BB7.2 mAb. […] DC50 was defined as the time required for the loss of 50% of the HLA-A*0201/peptide complexes stabilized at t=0.

T2 cells = assay: IFN-γ ELISA of peptide-stimulated CTLs against peptide-pulsed T2 cells; assay type: cell-based, human; conditions: ELISA of supernatant
Experimental: (§1) The binding of the peptide-primed CTLs to HLA-A2 positive human cells was also tested. To generate dendritic cells, the plastic adherent cells from PBMCs were cultured in AIM-V medium supplemented with recombinant human GM-CSF and recombinant human IL-4 at 37° C. in a humidified incubator with 5% CO2. Six days later, the immature dendritic cells were stimulated with recombinant human TNF-alpha for maturation. Mature dendritic cells were then harvested on day 8, resuspended in PBS at 1×10^6/mL with the indicated peptides (2 μg/mL), and incubated for 2 hours at 37° C. Autologous PBMCs (2×10^6 per well) were cocultured with 2×10^5 per well peptide-pulsed dendritic cells in 2 mL/well of AIM-V medium supplemented with 5% human AB serum and 10 units/mL rhIL-7 (Cell Sciences) in each well of 24-well tissue culture plates.
(§2) On the next day and then every 3 days thereafter, 300 IU/ml of IL-2 was added to the medium. On day 7, lymphocytes were restimulated with autologous dendritic cells in AIM-V medium supplemented with 5% human AB serum, rhIL-2, and rhIL-7 (10 units/mL each). To generate peptide-specific CTLs, CD8 (+) T cells were isolated from healthy donors, then stimulated by autologous DC pulsed with peptide. After three cycle stimulations, these CTLs could efficiently recognize both HLA-A2 and CD133 positive cancer stem cells, as measured by amount of IFN-γ (pg/ml) in supernatant detected by ELISA (Table 2). However, they could not recognize the CD133 positive normal neural stem cells due to their absence of MHC expression.

[2] = system: HLA-A2 and CD133 positive cancer stem cells (CSC4); assay: IFN-γ ELISA of peptide-stimulated CTLs against cancer stem cells; assay type: cell-based, human; conditions: ELISA of supernatant
Experimental: as §1, §2

[3] = system: CD8 (+) T cells from healthy donors; assay: HLA-A*0201/peptide tetramer staining of peptide-induced CTLs, flow cytometry; assay type: cell-based, human
Experimental: To generate peptide-specific CTLs, CD8 (+) T cells were isolated from healthy donors, then stimulated by autologous DC pulsed with peptide. Specific T cells were generated after PBMCs were stimulated by autologous DC pulsed with irradiated, apoptotic cancer stem cells (CSCs). Phycoerythrin-conjugated HLA-A*0201/peptide tetramers were synthesized. The cells were stained with tetramers (5 ng/ml) in PBS+0.5% human AB serum for 1 hour at room temperature, washed once in the same buffer, stained with anti-human CD8-FITC (BD Biosciences) mAbs for 30 minutes at 4° C. followed by flow cytometry analysis.

[4] = target: T2, HLA-A2 molecules on T2 cells (Homo sapiens, UniProt P04439, D140Y/D185E/D98H/E176V/E277Q/G131W/G231S/I119V/I121R/I166T/I218V/L300P/L318F/N151K/N90K/P208A/P217A/Q86G/Q94H/R138H/R169H/T345S); assay: Binding of mouse CD133 peptide to HLA-A2 on T2 cells (BB7.2 mAb, flow cytometry); conditions: 0 μM, 10 μM or 100 μM peptide overnight
T2 construct: mean fluorescence of peptide preincubated T2 cells; endogenous in cells; host or cells: T2 cells
Experimental: The mouse counterpart of SEQ ID NO:1, […] (SEQ ID NO:11) also bound to HLA-A2, despite having only two amino acid residues in common. T2 cells were incubated overnight with 0 μM, 10 μM, or 100 μM of SEQ ID NO:11. The cells were then incubated with Brefeldin A (Sigma, St. Louis, Mo.) at 10 μg/ml for 1 hour, washed, incubated at 37° C. in the presence of Brefeldin A ([…]), and then stained with BB7.2 mAb. Fluorescence intensity was measured by flow cytometry.

Sequence | DC50 (time required for the loss of 50% of the HLA-A*0201/peptide complexes stabilized at t=0) ([1]; 100 μM peptide) [h] | Binding to HLA-A2 / HLA-A*0201 molecules (in words) ([1]; listed as SEQ ID NO:1) | Binding to HLA-A2 / HLA-A*0201 molecules (in words) ([1]; listed as peptide 405) | IFN-γ induced by PBMC stimulus for CTL generation, target T2 + 117 (T2 cells) [pg/mL] | IFN-γ induced by PBMC stimulus for CTL generation, target T2 + 301 (T2 cells) [pg/mL] | IFN-γ induced by PBMC stimulus for CTL generation, target T2 + 405 (T2 cells) [pg/mL] | IFN-γ induced by PBMC stimulus for CTL generation, target T2 + 708 (T2 cells) [pg/mL] | IFN-γ induced by PBMC stimulus for CTL generation, target T2 + 804 (T2 cells) [pg/mL] | IFN-γ induced by PBMC stimulus for CTL generation, target T2 only (T2 cells) [pg/mL] | IFN-γ induced by PBMC stimulus for CTL generation, target CSC4 [2] [pg/mL] | Tetramer positive cell ([3]; CD8+ T cells stimulated by autologous DC pulsed with peptide, PE HLA-A*0201/peptide tetramer and anti-CD8-FITC) [%] | Immunogenicity (in words) ([3]; overall conclusion of Example 1) | Cell fluorescence (binding to HLA-A2) [4]
ILSAFSVYV (Homo sapien) [CD133-405] | >6 | bound strongly | binds relatively strongly | 334 | 311 | 2450 | 394 | 390 | 289 | 2311 | 3.72 | highly immunogenic | –
FLLPALIFAV (Homo sapien) [CD133-804] | – | – | – | 275 | 148 | 294 | 247 | 409 | 211 | 450 | – | – | –
GLLERVTRI (Homo sapien) [CD133-708] | – | – | – | 281 | 234 | 326 | 286 | 258 | 206 | 403 | – | – | –
MLLQVSHYL (Mus Musculus) [SEQ ID NO:11] | – | – | – | – | – | – | – | – | – | – | – | – | increased in a dose-dependent manner
LLFIILMPLV (Homo sapien) [CD133-117] | – | – | – | 322 | 247 | 262 | 192 | 336 | 275 | 262 | – | – | –
SLNDPLCLV (Homo sapien) [CD133-301] | – | – | – | 174 | 165 | 185 | 214 | 252 | 179 | 390 | – | – | –
